This note sets out measurements from paper PMC4818757, “Small molecule inhibitors of the Dishevelled‐CXXC5 interaction are new drug candidates for bone anabolic osteoporosis therapy” (EMBO Molecular Medicine, 2016).

For assay [1], the system named is ex vivo‐cultured calvaria. Put plainly: Ex vivo calvaria culture, thickness. The class given is cell-based, mouse. Particulars: 7 days. As for the experimental part: Figure 1 Identification and characterization of small molecules competing Dvl–CXXC5 binding in vitro • A A scheme for in vitro screening method of small molecules competing Dvl–CXXC5 binding. Briefly, purified Dvl PDZ domain was attached to the polystyrene surface of each well of 96‐well plates. Then, PolyR‐DBM (polyarginine‐conjugated Dvl binding motif tagged with FITC) (Kim et al, 2015) was added to each well and allowed to bind to the Dvl PDZ domain; 10 μM small‐molecule compound was added to each well, and the compounds competing with Dvl PZD‐PolyR‐DBM binding were measured by a microplate reader to screen the compounds reducing fluorescence signal. • B Screening results of compounds competing Dvl–CXXC5 interaction. […] The relative numbers of β‐catenin‐positive nuclei were counted (D). […] The calvaria thicknesses were measured from the images using Image Pro software (F). […] (error bars), and significance was assessed using unpaired Student's t‐test.
Figure 3 Effect of KY‐02061 on Wnt/β‐catenin pathway, osteoblast differentiation, and ex vivo‐cultured calvaria growth • A MC3T3E1 cells were transfected with pTOPFLASH together with pCMV‐β‐gal. […] The luciferase activities of whole‐cell lysates were measured and normalized with β‐galactosidase activities. […] The calvaria thicknesses were measured from the stained sections using Image Pro software (E). […]

For the next assay, the system named is MC3T3E1 cells. Kind of assay: qRT-PCR of osteoblast differentiation markers in MC3T3E1 cells. It counts as cell-based, murine. Particulars: dose‐dependent. As for the experimental part:
Figure 5 Effects of KY‐02327 on Wnt/β‐catenin pathway and osteoblast differentiation in osteoblasts • A MC3T3E1 cells were transfected with pTOPFLASH together with pCMV‐β‐gal. After 24 h, the cells were treated with indicated dose of KY‐02327 for 2 days. The luciferase activities of whole‐cell lysates were measured and normalized with β‐galactosidase activities. (n = 3) • B, C MC3T3E1 cells were treated with indicated concentrations of KY‐02327 for 2 days. β‐Catenin and α‐tubulin were detected by immunoblot (B) or immunofluorescence (C) analyses. Nuclei were counterstained with DAPI (C, blue). Scale bars, 100 μm. • D MC3T3E1 cells were treated with indicated concentrations of KY‐02327 for 14 days. The mRNA level of collagen 1a (Col1a) was measured by quantitative real‐time PCR (qRT–PCR). […] The mRNA level of osteocalcin (OCN) was measured by qRT–PCR. […] (error bars), and significance was assessed using unpaired Student's t‐test.
MC3T3E1 cells and primary calvaria cells were maintained in supplemented α‐MEM. […] For quantitative real‐time PCR (qRT–PCR), total mRNAs were extracted using TRIzol (Invitrogen), complementary DNAs were prepared using Maxime PCR PreMix (iNtRON Biotechnology, Sungnam, Korea), and the qRT–PCRs were performed using SYBR Premix Ex Taq (TaKaRa, Shiga, Japan) in the StepOnePlus Real‐Time PCR machine (Thermo Fisher Scientific, Waltham, MA). […]
In general terms: In qPCR the cycle at which signal appears reflects the starting amount.

For `CCOC(=O)Cn1c(C(=O)OCC)cc2cc(OS(=O)(=O)c3ccc(C)cc3)ccc21` [KY‐02061], the “increase of thickness of ex vivo‐cultured calvaria compared with DMSO‐treated control” value in assay [1] (2 μM) is given as 51.2%. Further, the “thickness of ex vivo‐cultured calvaria, dose dependence” value in assay [1] is “increased”.

With `CCOC(=O)c1cc2cc(O)ccc2n1CC(=O)NCCN1CCCCC1` [KY‐02327], the “mRNA level of collagen 1a (Col1a)” value in the assay with MC3T3E1 cells (14 days) is recorded as “increased”. Moreover, the “mRNA level of osteocalcin (OCN)” value in the assay on MC3T3E1 cells (21 days) was “increased”.
